One may read the IC50 as the concentration needed to halve the response being measured.

Sequence of biotinylated Avi-POLθ[2-894] (O75417 2-894): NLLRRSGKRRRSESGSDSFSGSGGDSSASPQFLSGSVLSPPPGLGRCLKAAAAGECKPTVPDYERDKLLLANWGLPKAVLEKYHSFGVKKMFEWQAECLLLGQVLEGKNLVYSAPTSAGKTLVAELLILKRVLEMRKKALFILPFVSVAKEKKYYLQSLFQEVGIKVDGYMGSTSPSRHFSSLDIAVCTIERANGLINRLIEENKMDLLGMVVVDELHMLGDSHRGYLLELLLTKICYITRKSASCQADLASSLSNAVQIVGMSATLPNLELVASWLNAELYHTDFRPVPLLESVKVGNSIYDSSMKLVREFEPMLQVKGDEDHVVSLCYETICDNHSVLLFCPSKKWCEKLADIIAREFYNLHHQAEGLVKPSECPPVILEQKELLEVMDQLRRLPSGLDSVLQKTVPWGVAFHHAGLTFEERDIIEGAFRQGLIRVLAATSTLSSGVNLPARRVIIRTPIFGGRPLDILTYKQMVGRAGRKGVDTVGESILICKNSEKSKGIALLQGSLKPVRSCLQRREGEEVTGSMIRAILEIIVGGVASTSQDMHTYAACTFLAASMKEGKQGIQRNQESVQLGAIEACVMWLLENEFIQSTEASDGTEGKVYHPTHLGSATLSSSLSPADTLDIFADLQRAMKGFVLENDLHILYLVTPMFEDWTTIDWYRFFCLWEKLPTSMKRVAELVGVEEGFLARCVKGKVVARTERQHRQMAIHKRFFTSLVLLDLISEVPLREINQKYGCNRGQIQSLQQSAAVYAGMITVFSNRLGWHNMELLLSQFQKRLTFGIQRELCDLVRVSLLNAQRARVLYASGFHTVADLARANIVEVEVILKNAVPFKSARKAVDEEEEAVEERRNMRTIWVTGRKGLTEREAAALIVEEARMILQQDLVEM

This test concerns the target biotinylated Avi-POLθ[2-894] (Homo sapiens (Human), UniProt O75417). Kind of test: POLθ ATPase assay (ADP-Glo). The following applies: n=2; read-out: Biochemical ATPase ADPGlo IC50.
Regarding `COc1cnc(Cl)cc1-c1cc(C)ncc1C(=O)Nc1nc2c(s1)CN(C(=O)c1cnn(C3CC3)c1)C2` [Example 80, 2′-chloro-N-(5-(1-cyclopropyl-1H-pyrazole-4-carbonyl)-5,6-dihydro-4H-pyrrolo[3,4-d]thiazol-2-yl)-5′-methoxy-6-methyl-[4,4′-bipyridine]-3-carboxamide], the half-inhibitory concentration (IC50) was 1 to 15 nM.
As for `COc1cnc(Cl)cc1-c1cc(C)ncc1C(=O)Nc1nc2c(s1)CN(C(=O)c1cnn(CC(F)(F)F)c1)C2` [Example 83, 2′-chloro-5′-methoxy-6-methyl-N-(5-(1-(2,2,2-trifluoroethyl)-1H-pyrazole-4-carbonyl)-5,6-dihydro-4H-pyrrolo[3,4-d]thiazol-2-yl)-[4,4′-bipyridine]-3-carboxamide], the half-maximal inhibitory concentration (IC50) fell in the range of 15 to 50 nM.
The value for `COc1cnc(Cl)cc1-c1cc(C)ncc1C(=O)Nc1nc2c(s1)CN(C(=O)c1cnn(C(C)C)c1)C2` [Example 85, 2′-chloro-N-(5-(1-isopropyl-1H-pyrazole-4-carbonyl)-5,6-dihydro-4H-pyrrolo[3,4-d]thiazol-2-yl)-5′-methoxy-6-methyl-[4,4′-bipyridine]-3-carboxamide] was 1 to 15 nM; that for `COc1cnc(Cl)cc1-c1cc(C)ncc1C(=O)Nc1nc2c(s1)CN(C(=O)c1cnn(C)c1C)C2` [Example 87, 2′-chloro-N-(5-(1,5-dimethyl-1H-pyrazole-4-carbonyl)-5,6-dihydro-4H-pyrrolo[3,4-d]thiazol-2-yl)-5′-methoxy-6-methyl-[4,4′-bipyridine]-3-carboxamide] was 15 to 50 nM.
The same measure for `COc1cnc(Cl)cc1-c1cc(C)ncc1C(=O)Nc1nc2c(s1)CN(C(=O)c1cnn(C)c1C(F)F)C2` [Example 91, 2′-chloro-N-(5-(5-(difluoromethyl)-1-methyl-1H-pyrazole-4-carbonyl)-5,6-dihydro-4H-pyrrolo[3,4-d]thiazol-2-yl)-5′-methoxy-6-methyl-[4,4′-bipyridine]-3-carboxamide]: 1 to 15 nM; for `COc1cnc(Cl)cc1-c1cc(C)ncc1C(=O)Nc1nc2c(s1)CN(C(=O)c1cc(O)n(C)n1)C2` [Example 92, 2′-chloro-N-(5-(5-hydroxy-1-methyl-1H-pyrazole-3-carbonyl)-5,6-dihydro-4H-pyrrolo[3,4-d]thiazol-2-yl)-5′-methoxy-6-methyl-[4,4′-bipyridine]-3-carboxamide]: 15 to 50 nM; for `COc1cnc(Cl)cc1-c1cc(C)ncc1C(=O)Nc1nc2c(s1)CN(C(=O)[C@H]1CC[C@H](O)CC1)C2` [Example 96, 2′-chloro-N-(5-((1r,4r)-4-hydroxycyclohexane-1-carbonyl)-5,6-dihydro-4H-pyrrolo[3,4-d]thiazol-2-yl)-5′-methoxy-6-methyl-[4,4′-bipyridine]-3-carboxamide]: 1 to 15 nM.
The value for `COc1cn2cncc2cc1-c1cc(C)ncc1C(=O)Nc1nc2c(s1)CN(C(=O)[C@H]1C[C@@H](OC(F)(F)F)C1)C2` [Example 97, 4-(6-methoxyimidazo[1,5-a]pyridin-7-yl)-6-methyl-N-(5-((1s,3s)-3-(trifluoromethoxy)cyclobutane-1-carbonyl)-5,6-dihydro-4H-pyrrolo[3,4-d]thiazol-2-yl)nicotinamide] was 1 to 15 nM.
In the case of `COc1cnccc1-c1cc(C)ncc1C(=O)Nc1nc2c(s1)CN(C(=O)c1ccccn1)C2` [Example 98, 3′-methoxy-6-methyl-N-(5-picolinoyl-5,6-dihydro-4H-pyrrolo[3,4-d]thiazol-2-yl)-[4,4′-bipyridine]-3-carboxamide], the half-maximal inhibitory concentration (IC50) was 150 to 900 nM.
Take `COc1cnc(Cl)cc1-c1cc(C)ncc1C(=O)Nc1nc2c(s1)CC(N[C@H]1C[C@@H](O)C1)CC2` (some centres unmarked) [Example 99, 2′-chloro-N-(6-(((1s,3s)-3-hydroxycyclobutyl)amino)-4,5,6,7-tetrahydrobenzo[d]thiazol-2-yl)-5′-methoxy-6-methyl-[4,4′-bipyridine]-3-carboxamide]: the IC50 is not below 900 nM.
The value for `COc1cnc(Cl)cc1-c1cc(C)ncc1C(=O)Nc1nc2c(s1)CN(C(=O)c1ncccn1)C2` [Example 100, 2′-chloro-5′-methoxy-6-methyl-N-(5-(pyrimidine-2-carbonyl)-5,6-dihydro-4H-pyrrolo[3,4-d]thiazol-2-yl)-[4,4′-bipyridine]-3-carboxamide] was 1 to 15 nM; that for `COc1cnc(Cl)cc1-c1cc(C)ncc1C(=O)Nc1nc2c(s1)CN(C(=O)[C@@H]1C[C@H]1CO)C2` [Example 102, 2′-chloro-N-(5-((1R,2R)-2-(hydroxymethyl)cyclopropane-1-carbonyl)-5,6-dihydro-4H-pyrrolo[3,4-d]thiazol-2-yl)-5′-methoxy-6-methyl-[4,4′-bipyridine]-3-carboxamide] was 1 to 15 nM; that for `COc1cnc(Cl)cc1-c1cc(C)ncc1C(=O)Nc1nc2c(s1)CN(C(=O)[C@@H]1C[C@@H]1C(F)F)C2` [Example 104, 2′-chloro-N-(5-((1R,2S)-2-(difluoromethyl)cyclopropane-1-carbonyl)-5,6-dihydro-4H-pyrrolo[3,4-d]thiazol-2-yl)-5′-methoxy-6-methyl-[4,4′-bipyridine]-3-carboxamide] was 15 to 50 nM.
The value for `COc1cnc(Cl)cc1-c1cc(C)ncc1C(=O)Nc1nc2c(s1)CN(C(=O)[C@H]1C[C@](F)(CO)C1)C2` [Example 105, 2′-chloro-N-(5-((1s,3s)-3-fluoro-3-(hydroxymethyl)cyclobutane-1-carbonyl)-5,6-dihydro-4H-pyrrolo[3,4-d]thiazol-2-yl)-5′-methoxy-6-methyl-[4,4′-bipyridine]-3-carboxamide] was 15 to 50 nM; that for `COc1cnc(Cl)cc1-c1cc(C)ncc1C(=O)Nc1nc2c(s1)CN(C(=O)[C@H]1C[C@@](F)(CO)C1)C2` [Example 106, 2′-chloro-N-(5-((1r,3r)-3-fluoro-3-(hydroxymethyl)cyclobutane-1-carbonyl)-5,6-dihydro-4H-pyrrolo[3,4-d]thiazol-2-yl)-5′-methoxy-6-methyl-[4,4′-bipyridine]-3-carboxamide] was 1 to 15 nM.
In the case of `COc1cnc(Cl)cc1-c1cc(C)ncc1C(=O)Nc1nc2c(s1)CN(C(=O)[C@@H]1C[C@@H]1CO)C2` [Example 107, 2′-chloro-N-(5-((1R,2S)-2-(hydroxymethyl)cyclopropane-1-carbonyl)-5,6-dihydro-4H-pyrrolo[3,4-d]thiazol-2-yl)-5′-methoxy-6-methyl-[4,4′-bipyridine]-3-carboxamide], the IC50 is 50 to 150 nM.
As for `COc1cnc(C)cc1-c1cc(C)ncc1C(=O)Nc1nc2c(s1)CN(C(=O)c1ccccn1)C2` [Example 108, 5′-methoxy-2′,6-dimethyl-N-(5-picolinoyl-5,6-dihydro-4H-pyrrolo[3,4-d]thiazol-2-yl)-[4,4′-bipyridine]-3-carboxamide], the half-inhibitory concentration (IC50) lay in the range of 15 to 50 nM.
On to `COc1cnc(Cl)cc1-c1cc(C)ncc1C(=O)Nc1nc2c(s1)CN(C(=O)C1CCC(O)(C(F)(F)F)CC1)C2` (centres unmarked) [Example 112], for which the IC50 was in the range of 1 to 15 nM.
For `COc1cnc(Cl)cc1-c1cc(C)ncc1C(=O)Nc1nc2c(s1)CN(C(=O)[C@H]1CC[C@@H](O)CC1)C2` [Example 115], the IC50 is 15 to 50 nM.
The value for `COc1cnc(Cl)cc1-c1cc(C)ncc1C(=O)Nc1nc2c(s1)CN(C(=O)C1CC(OC(C)C)C1)C2` (centres unmarked) [Example 119] was 1 to 15 nM.
The value for `COc1cnc(Cl)cc1-c1cc(C)ncc1C(=O)Nc1nc2c(s1)CN(C(=O)C1CN(CC(F)(F)F)C1)C2` [Example 120] was 15 to 50 nM.
In the case of `COc1cn2cncc2cc1-c1cc(C)ncc1C(=O)Nc1nc2c(s1)CN(C(=O)c1cccnc1OC)C2` [Example 124], the IC50 was in the range of 1 to 15 nM.
On to `COc1cnc(Cl)cc1-c1cc(C)ncc1C(=O)Nc1nc2c(s1)CN(C(=O)N1CC[C@@H](O)C1)C2` [Example 129], for which the IC50 lay in the range of 1 to 15 nM.
With `COc1cnc(Cl)cc1-c1cc(C)ncc1C(=O)Nc1nc2c(s1)CN(C(=O)c1ccnn1CC(F)F)C2` [Example 143, 2′-chloro-N-(5-(1-(2,2-difluoroethyl)-1H-pyrazole-5-carbonyl)-5,6-dihydro-4H-pyrrolo[3,4-d]thiazol-2-yl)-5′-methoxy-6-methyl-[4,4′-bipyridine]-3-carboxamide], the IC50 was 1 to 15 nM.
The same measure for `COc1cnc(Cl)cc1-c1cc(C)ncc1C(=O)Nc1nc2c(s1)CN(C(=O)N1CC(O)C1)C2` [Example 149]: 50 to 150 nM; for `COc1cnc(Cl)cc1-c1cc(C)ncc1C(=O)Nc1nc2c(s1)CN(C(=O)c1cn(C)nc1C(F)F)C2` [Example 173]: 1 to 15 nM; for `COc1ccc(C#N)cc1-c1cc(C)ncc1C(=O)Nc1nc2c(s1)CN(C(=O)C1CC(OC(F)F)C1)CC2` (centres unmarked) [Example 176]: 50 to 150 nM.
The value for `COc1cnc(Cl)cc1-c1cc(C)ncc1C(=O)Nc1nc2c(s1)CN(C(=O)C1CCC(O)C1)C2` (centres unmarked) [Example 180] was 1 to 15 nM.
Take `COc1cnc(Cl)cc1-c1cc(C)ncc1C(=O)Nc1nc2c(s1)CN(C(=O)[C@@H]1CCOC1)C2` [Example 181]: the concentration for half-maximal inhibition (IC50) is 1 to 15 nM.
As for `COc1cnc(Cl)cc1-c1cc(C)ncc1C(=O)Nc1nc2c(s1)CN(C(=O)c1ncco1)C2` [Example 182], the half-maximal inhibitory concentration (IC50) was in the range of 1 to 15 nM.
For `COc1cnc(Cl)cc1-c1cc(C)ncc1C(=O)Nc1nc2c(s1)CN(C(=O)[C@H]1CCCOC1)C2` [Example 183], the IC50 lay in the range of 1 to 15 nM.
The value for `COc1cnc(Cl)cc1-c1cc(C)ncc1C(=O)Nc1nc2c(s1)CN(C(=O)C1CCOCC1)C2` [Example 184] was 1 to 15 nM; that for `COc1cnc(Cl)cc1-c1cc(C)ncc1C(=O)Nc1nc2c(s1)CN(C(=O)[C@H]1C[C@@H](O)C1)C2` [Example 185] was 1 to 15 nM.
The same measure for `COc1cnc(Cl)cc1-c1cc(C)ncc1C(=O)Nc1nc2c(s1)CN(C(=O)[C@H]1CCCCO1)C2` [Example 186]: 1 to 15 nM; for `COc1cnc(Cl)cc1-c1cc(C)ncc1C(=O)Nc1nc2c(s1)CN(C(=O)[C@H]1C[C@H](O)C1)C2` [Example 187]: 1 to 15 nM; for `COc1ccc(C#N)cc1-c1cc(C)ncc1C(=O)Nc1nc2c(s1)CN(C(=O)C1CC(C)C1)C2` (centres unmarked) [Example 189]: 1 to 15 nM.
The value for `COc1cnc(Cl)cc1-c1cc(C)ncc1C(=O)Nc1nc2c(s1)CN(C(=O)C1CC3(COC3)C1)C2` [Example 192] was 1 to 15 nM; that for `COc1cnc(Cl)cc1-c1cc(C)ncc1C(=O)Nc1nc2c(s1)CN(C(=O)[C@H]1C[C@@](C)(O)C1)C2` [Example 193] was 1 to 15 nM.
